Assay results published in patent US12116371B2, “Substituted pyridines as irreversible inhibitors of menin-MLL interaction” (BIOMEA FUSION, INC., priority 2018, dated 2024).
Like-named read-outs stand apart in the source and are kept apart here.

Experiments:
Settings in all cases: for IC50: Homo sapiens
[1] = system: NCI-H23 cells; experiment: Proliferation assay, cells in adhesion; type: cell-based
[2] = system: MIAPaCa-2/AMG510 cells; experiment: Proliferation assay, cells in adhesion; type: cell-based
[3] = system: OCI-AML-3 cells; experiment: Long term proliferation assay, InCell read-out; type: cell-based
Description: (§1) Compounds of invention are tested in the 5 suspension lines by 14-day long-term proliferation assay.
(§2) The compound is tested in 10-pt dose titration (client will determine the starting concentration and the dilution scheme) and the final DMSO concentration is kept at 0.2%.
(§3) On Day 0, in a flat bottom 96-well plate, add 100 μL of cells per well at the densities optimized. Prepare compounds in DMSO at 500× final concentration. Dilute the compounds with DMSO at the dilution. Dilute the compounds in media at 3× final concentration. Add 50 μL of compound or DMSO at 3× final concentration to each well. Final volume in each well is 150 μL, and final concentration of DMSO is 0.2%. Also include 3 untreated control wells, by adding 50 μL of media alone. Incubate plates for 96 hours.
(§4) To do this take the total viable cell count calculated using step: • 1. Take the average of the replicates for each dose in order to be used in splitting the cells. • 2. Use a 96 well V-bottom plate to spin down the cells to remove old media and compound to split the cells. • 3. Based on the split ratio place the proper amount of media and cells into the V-bottom plate, and spin the plate at 1100 rpm for 5 minutes. • 4. Following the spin remove the media, careful not to disturb the cell pellet. Re-suspend pellet in 100 μL fresh media, and add to a new 96-well flat bottom plate. • 5. Add fresh compound, in the same manner as Step 3). • 6. Incubate plates for 72 hours. Repeat steps 5)-10) on Day 7. • 7. Incubate plates for 96 hours. Repeat Step 5)-10) on Day 11. • 8. Incubate 72 hours and repeat step 5) to take a final count. • 9. Data Analysis
(§5) To calculate growth for days 4, 7, 11, and 14: • 1. Calculate the split factor for day 4 to 7, day 7 to 11, and day 11-14. The split factor is the viable cells/mL on Day X (either 4, 7 or 11) divided by the density the cells are being split back to. • 2. For growth of cells from day 4 to 7, multiply the day 7 viable cells/mL density by the split factor from day 4. • 3. For growth of cells from day 7 to 11, multiply the day 11 viable cells/mL density by the days 4, and 7 split factors. • 4. For growth of cells from Day 11 to 14, multiply the Day 14 viable cells/mL density by the days 4, 7, and 11 split factors. • 5. Plot growth on semi-log chart (viable cells/mL on Y axis, in log, and days on X axis). • 6. The growth inhibition was calculated with the formula ((untreated cell numbers-treated cell numbers)/untreated cell)). • 7. Calculate the IC50 for each compound in each line using XLFit (Sigmoidal Dose-Response Model, y=(Bottom+((Top-Bottom)/(1+((IC50/×)^Hill))))).

[4] = system: KG-1 cells; experiment: Long term proliferation assay, InCell read-out; type: cell-based
Description: as §1, §2, §3, §4, §5

[5] = system: MOLM-13 cells; experiment: Long term proliferation assay, Cell Titer-Glo read-out; type: cell-based, human
Description: as §1, §2, §3, §4, §5

[6] = system: MOLM-13 cells; experiment: Long term proliferation assay, InCell read-out; type: cell-based, human
Description: as §1, §2, §3, §4, §5

[7] = system: MV4-11 cells; experiment: Long term proliferation assay, InCell read-out; type: cell-based, human
Description: as §1, §2, §3, §4, §5

[8] = system: Panc 10.05 cells; experiment: Proliferation assay, cells in adhesion; type: cell-based

## CN(C)C/C=C/C(=O)Nc1ccc(CC(=O)Nc2ccc(-c3cc4c(N5CCOCC5)ncnc4[nH]3)cc2)cc1 [Compound 5]
[1]; NCI-H23, NCI-H23, T4, read-out: IC50
  IC50: > 5000 nM
[1]; NCI-H23, NCI-H23, T4, read-out: pIC50 (converted)
  IC50: > 5010 nM
[1]; NCI-H23, NCI-H23, T7, read-out: IC50
  IC50: > 5000 nM
[1]; NCI-H23, NCI-H23, T7, read-out: pIC50 (converted)
  IC50: > 5010 nM
[1]; NCI-H23, NCI-H23, T11, read-out: IC50
  IC50: > 5000 nM
[1]; NCI-H23, NCI-H23, T11, read-out: pIC50 (converted)
  IC50: > 5010 nM
[1]; NCI-H23, T4
  % max: <50%
[1]; NCI-H23, T7
  % max: <50%
[1]; NCI-H23, T11
  % max: <50%
[2]; MIA PaCa-2, MIAPaCa-2/AMG510, T4, read-out: IC50
  IC50: 810 nM
[2]; MIA PaCa-2, MIAPaCa-2/AMG510, T4, read-out: pIC50 (converted)
  IC50: 813 nM
[2]; MIA PaCa-2, MIAPaCa-2/AMG510, T7, read-out: IC50
  IC50: 350 nM
[2]; MIA PaCa-2, MIAPaCa-2/AMG510, T7, read-out: pIC50 (converted)
  IC50: 347 nM
[2]; MIAPaCa-2/AMG510, T11, read-out: IC50
  IC50: 270 nM
[2]; MIAPaCa-2/AMG510, T11, read-out: pIC50 (converted)
  IC50: 269 nM
[2]; MIAPaCa-2/AMG510, T4
  % max: 92%
[2]; MIAPaCa-2/AMG510, T7
  % max: 98%
[2]; MIAPaCa-2/AMG510, T11
  % max: 99%
[3]; OCI-AML-3, 96 h, OCI-AML-3, Day 4, read-out: Day 4 IC50
  IC50: 450 nM
[3]; OCI-AML-3, 264 h, OCI-AML-3, Day 11, read-out: Day 11 IC50
  IC50: 460 nM
[3]; OCI-AML-3, OCI-AML3, T4, read-out: IC50
  IC50: 450 nM
[3]; OCI-AML-3, OCI-AML3, T4, read-out: pIC50 (converted)
  IC50: 447 nM
[3]; OCI-AML-3, OCI-AML3, T11, read-out: IC50
  IC50: 460 nM
[3]; OCI-AML-3, OCI-AML3, T11, read-out: pIC50 (converted)
  IC50: 457 nM
[3]; OCI-AML3, T4
  % max: 100%
[3]; OCI-AML3, T11
  % max: 100%
[4]; KG-1, 96 h, KG-1, Day 4, read-out: Day 4 IC50
  IC50: > 5000 nM
[4]; KG-1, 264 h, KG-1, Day 11, read-out: Day 11 IC50
  IC50: > 4470 nM
[4]; KG-1, KG-1, T4, read-out: IC50
  IC50: > 5000 nM
[4]; KG-1, KG-1, T4, read-out: pIC50 (converted)
  IC50: > 5010 nM
[4]; KG-1, KG-1, T11, read-out: IC50
  IC50: 4470 nM
[4]; KG-1, KG-1, T11, read-out: pIC50 (converted)
  IC50: 4470 nM
[4]; KG-1, T4
  % max: <50%
[4]; KG-1, T11
  % max: 52%
[5]; MOLM-13, 96 h, MOLM-13, Day 4, Cell Titer-Glo, read-out: Day 4 IC50
  IC50: 500 nM
[5]; MOLM-13, 168 h, MOLM-13, Day 7, Cell Titer-Glo, read-out: Day 7 IC50
  IC50: 340 nM
[5]; MOLM-13, 264 h, MOLM-13, Day 11, Cell Titer-Glo, read-out: Day 11 IC50
  IC50: 350 nM
[5]; MOLM-13, 336 h, MOLM-13, Day 14, Cell Titer-Glo, read-out: Day 14 IC50
  IC50: 360 nM
[5]; MOLM-13, MOLM-13, T4, CellTiter-Glo, read-out: IC50
  IC50: 500 nM
[5]; MOLM-13, MOLM-13, T4, CellTiter-Glo, read-out: pIC50 (converted)
  IC50: 501 nM
[5]; MOLM-13, MOLM-13, T11, CellTiter-Glo, read-out: IC50
  IC50: 350 nM
[5]; MOLM-13, MOLM-13, T11, CellTiter-Glo, read-out: pIC50 (converted)
  IC50: 355 nM
[5]; MOLM-13, T4, CellTiter-Glo
  % max: 98%
[5]; MOLM-13, T11, CellTiter-Glo
  % max: 99%
[6]; MOLM-13, 96 h, MOLM-13, Day 4, read-out: Day 4 IC50
  IC50: 150 nM
[6]; MOLM-13, 264 h, MOLM-13, Day 11, read-out: Day 11 IC50
  IC50: 380 nM
[6]; MOLM-13, MOLM-13, T4, read-out: IC50
  IC50: 150 nM
[6]; MOLM-13, MOLM-13, T4, read-out: pIC50 (converted)
  IC50: 148 nM
[6]; MOLM-13, MOLM-13, T11, read-out: IC50
  IC50: 380 nM
[6]; MOLM-13, MOLM-13, T11, read-out: pIC50 (converted)
  IC50: 380 nM
[6]; MOLM-13, T4
  % max: 97%
[6]; MOLM-13, T11
  % max: 98%
[7]; MV4-11, 96 h, MV4-11, Day 4, read-out: Day 4 IC50
  IC50: 420 nM
[7]; MV4-11, 264 h, MV4-11, Day 11, read-out: Day 11 IC50
  IC50: 490 nM
[7]; MV4-11, MV4-11, T4, read-out: IC50
  IC50: 420 nM
[7]; MV4-11, MV4-11, T4, read-out: pIC50 (converted)
  IC50: 417 nM
[7]; MV4-11, MV4-11, T11, read-out: IC50
  IC50: 490 nM
[7]; MV4-11, MV4-11, T11, read-out: pIC50 (converted)
  IC50: 490 nM
[7]; MV4-11, T4
  % max: 83%
[7]; MV4-11, T11
  % max: 83%
[8]; Panc1005, Panc 10.05, T4, read-out: IC50
  IC50: > 5000 nM
[8]; Panc1005, Panc 10.05, T4, read-out: pIC50 (converted)
  IC50: > 5010 nM
[8]; Panc1005, Panc 10.05, T7, read-out: IC50
  IC50: > 5000 nM
[8]; Panc1005, Panc 10.05, T7, read-out: pIC50 (converted)
  IC50: > 5010 nM
[8]; Panc1005, Panc 10.05, T11, read-out: IC50
  IC50: 4170 nM
[8]; Panc1005, Panc 10.05, T11, read-out: pIC50 (converted)
  IC50: 4170 nM
[8]; Panc 10.05, T4
  % max: <50%
[8]; Panc 10.05, T7
  % max: <50%
[8]; Panc 10.05, T11
  % max: 50%
